1 compound from US11155814B2, “Methods for using DNA repair for cell engineering” (Caribou Biosciences, Inc., priority 2016, dated 2021) can be followed below.

The test system of this assay is HEK293T cells. The experiment in a line: Compound treatment: DNA-PK inhibitor added after sgRNP nucleofection, DNA repair outcomes profiled by amplicon sequencing. Type of assay: cell-based, human. The method, then: For compound treatments, sgRNP formation and nucleofection of 293T cells was performed as described above and cells were plated in 150 μl of culture medium. One hour after plating, 50 μl of media containing compound at 4× the final concentration were delivered to the cells. […] 48 hours after compound addition, cells were harvested and processed for genomic DNA preparation as described below.
K562 cells and HSCs were transferred to a thermal cycler compatible plate and pelleted by centrifugation. After the media was gently aspirated, 50 μl EpiBio QuickExtract DNA extraction solution (Epicentre, QE09050) was added into each well and the plate was incubated at 37° C. for 15 minutes. For HEK293 and HCT116 cells, media was gently aspirated from 96-well culture plates and cells were gently rinsed with 1×Phosphate Buffered Saline (PBS). 50 μl of EpiBio QuickExtract DNA extraction solution was added to each well and the plates were incubated at 37° C. for 15 minutes. For all cell types, molecular biology grade water (Teknova) was added to each well to attain a concentration of 1000 genomic copies/μl for subsequent PCR reactions. After addition of water, adherent cells were then transferred to thermal cycler compatible plates. All cell types were lysed (75° C. 10 min, 95° C. 5 min) and the lysate was stored at −80° C. […]
Following secondary alignment, reads were then categorized as “mutant” if they contained an indel within ±5 base pairs of the cut site; otherwise, they were categorized as “wild type”. Each mutant read was assigned to an “indel class” based on the indel type (insertion or deletion), start site, and length.
Heat maps were generated from the processed sequencing data as follows. […] The color intensities in the cells correspond to frequency as a fraction of mutant reads, with the color scale ranging from 0 to 0.2 (saturation). […]

Where [1] appears, read: as inhibitor concentration increased (1.56 μM-25 μM), 48 hours.

For the compound `O=c1cc(N2CCOCC2)oc2c(-c3cccc4c3sc3ccccc34)cccc12` [NU7441], under setting [1], the “mean frequency of a subset of large deletions (>3 base pairs) present in the DNA repair profiles” value was “increased”; the “mean frequency of single base insertions and small deletions (<3 base pairs)” value is listed as “decreased”. Further, the “change of the DNA repair patterns at 12 different target sites compared with untreated samples” value (lowest concentration of inhibitor (1.56 μM), added one hour post nucleofection, harvested 48 hours) is listed as “apparent”.
